Assay results from patent publication US7741281B2, “Hepatitis C virus inhibitors” (Bristol-Myers Squibb Company, priority 2005, dated 2010).
Like-named read-outs stand apart in the source and are kept apart here.

Key:
[1] = target: T1, HCV NS3/4A protease complex, BMS strain (UniProt P27958, species not given/STRAIN_BMS); assay: FRET peptide assay to monitor HCV NS3/4A proteolytic activity (BMS strain); format: biochemical, HCV genotype 1a
T1 construct: for H77 and J4L6S; fused on or other part: Three-lysine solubilizing tail at the end of NS4A, for the H77 and J4L6S constructs; Purification on Ni-NTA and the pET21b vector imply a His tag
T1 sequence (P27958 1027-1657, change not shown, one chain of several): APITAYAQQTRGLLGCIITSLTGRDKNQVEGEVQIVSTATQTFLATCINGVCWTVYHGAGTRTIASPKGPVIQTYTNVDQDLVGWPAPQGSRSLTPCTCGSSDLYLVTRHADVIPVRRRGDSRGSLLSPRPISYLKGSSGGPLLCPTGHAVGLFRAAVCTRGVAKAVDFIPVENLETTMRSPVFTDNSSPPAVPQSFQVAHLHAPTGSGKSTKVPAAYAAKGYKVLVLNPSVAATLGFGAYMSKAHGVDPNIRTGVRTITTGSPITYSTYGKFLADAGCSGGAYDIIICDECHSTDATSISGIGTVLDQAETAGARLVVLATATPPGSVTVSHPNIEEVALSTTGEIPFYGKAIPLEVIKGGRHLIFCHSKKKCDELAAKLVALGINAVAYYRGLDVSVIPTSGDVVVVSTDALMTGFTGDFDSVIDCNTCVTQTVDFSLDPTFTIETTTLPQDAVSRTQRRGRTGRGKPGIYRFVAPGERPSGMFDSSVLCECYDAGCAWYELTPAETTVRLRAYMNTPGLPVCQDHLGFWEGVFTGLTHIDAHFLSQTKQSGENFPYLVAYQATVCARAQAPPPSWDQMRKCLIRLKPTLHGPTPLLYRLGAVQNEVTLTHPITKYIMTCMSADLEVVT
Description: (§1) HCV NS3 protease complexes, derived from the BMS strain, H77 strain or J4L6S strain, were generated, as described below. These purified recombinant proteins were generated for use in a homogeneous assay (see below) to provide an indication of how effective compounds of the present disclosure would be in inhibiting HCV NS3 proteolytic activity.
Serum from an HCV-infected patient was obtained from Dr. T. Wright, San Francisco Hospital. An engineered full-length cDNA (compliment deoxyribonucleic acid) template of the HCV genome (BMS strain) was constructed from DNA fragments obtained by reverse transcription-PCR (RT-PCR) of serum RNA (ribonucleic acid) and using primers selected on the basis of homology between other genotype 1a strains. From the determination of the entire genome sequence, a genotype 1a was assigned to the HCV isolate according to the classification of Simmonds et al. (See P Simmonds, K A Rose, S Graham, S W Chan, F McOmish, B C Dow, E A Follett, P L Yap and H Marsden, J. Clin. Microbiol., 31(6), 1493-1503 (1993)). […] The infectious clones, H77 (1a genotype) and J4L6S (1b genotype) were obtained from R. Purcell (NIH) and the sequences are published in Genbank (AAB67036, see Yanagi, M., Purcell, R. H., Emerson, S. U. and Bukh, J. Proc. Natl. Acad. Sci. U.S.A. 94(16), 8738-8743 (1997); AF054247, see Yanagi, M., St Claire, M., Shapiro, M., Emerson, S. U., Purcell, R. H. and Bukh, J, Virology 244 (1), 161-172. (1998)).
The H77 and J4L6S strains were used for production of recombinant NS3/4A protease complexes. DNA encoding the recombinant HCV NS3/4A protease complex (amino acids 1027 to 1711) for these strains were manipulated as described by P. Gallinari et al. (see Gallinari P, Paolini C, Brennan D, Nardi C, Steinkuhler C, De Francesco R. Biochemistry. 38(17):5620-32, (1999)). Briefly, a three-lysine solubilizing tail was added at the 3′-end of the NS4A coding region. The cysteine in the P1 position of the NS4A-NS4B cleavage site (amino acid 1711) was changed to a glycine to avoid the proteolytic cleavage of the lysine tag. Furthermore, a cysteine to serine mutation was introduced by PCR at amino acid position 1454 to prevent the autolytic cleavage in the NS3 helicase domain. The variant DNA fragment was cloned in the pET21b bacterial expression vector (Novagen) and the NS3/4A complex was expressed in Escherichia. coli strain BL21 (DE3) (Invitrogen) following the protocol described by P. Gallinari et al. (see Gallinari P, Brennan D, Nardi C, Brunetti M, Tomei L, Steinkuhler C, De Francesco R., J Virol. 72(8):6758-69 (1998)) with modifications. Briefly, the NS3/4A protease complex expression was induced with 0.5 millimolar (mM) Isopropyl β-D-1-thiogalactopyranoside (IPTG) for 22 hours (h) at 20° C. A typical fermentation (1 Liter (L)) yielded approximately 10 grams (g) of wet cell paste. The cells were resuspended in lysis buffer (10 mL/g) consisting of 25 mM N-(2-Hydroxyethyl)Piperazine-N′-(2-Ethane Sulfonic acid) (HEPES), pH 7.5, 20% glycerol, 500 mM Sodium Chloride (NaCl), 0.5% Triton X-100, 1 microgram/milliliter (“μg/mL”) lysozyme, 5 mM Magnesium Chloride (MgCl2), 1 μg/ml DnaseI, 5 mM β-Mercaptoethanol (βME), Protease inhibitor-Ethylenediamine Tetraacetic acid (EDTA) free (Roche), homogenized and incubated for 20 minutes (min) at 4° C. The homogenate was sonicated and clarified by ultra-centrifugation at 235000 g for 1 h at 4° C. Imidazole was added to the supernatant to a final concentration of 15 mM and the pH adjusted to 8.0. The crude protein extract was loaded on a Nickel-Nitrilotriacetic acid (Ni-NTA) column pre-equilibrated with buffer B (25 mM HEPES, pH 8.0, 20% glycerol, 500 mM NaCl, 0.5% Triton X-100, 15 mM imidazole, 5 mM βME). The sample was loaded at a flow rate of 1 mL/min. The column was washed with 15 column volumes of buffer C (same as buffer B except with 0.2% Triton X-100). The protein was eluted with 5 column volumes of buffer D (same as buffer C except with 200 mM Imidazole). […]

[2] = target: T2, HCV NS3/4A protease complex, H77 strain (Hepatitis C virus genotype 1a, UniProt P27958, C1454S/C1711G); assay: FRET peptide assay to monitor HCV NS3/4A proteolytic activity (H77 strain); format: biochemical, HCV genotype 1a
T2 construct: recombinant HCV NS3/4A protease complex (amino acids 1027 to 1711) for these strains; His tag (inferred from pET21b vector and Ni-NTA purification); made in house; host or cells: Escherichia coli BL21 (DE3), pET21b
T2 sequence (P27958 1027-1711 C1454S/C1711G, one chain of several): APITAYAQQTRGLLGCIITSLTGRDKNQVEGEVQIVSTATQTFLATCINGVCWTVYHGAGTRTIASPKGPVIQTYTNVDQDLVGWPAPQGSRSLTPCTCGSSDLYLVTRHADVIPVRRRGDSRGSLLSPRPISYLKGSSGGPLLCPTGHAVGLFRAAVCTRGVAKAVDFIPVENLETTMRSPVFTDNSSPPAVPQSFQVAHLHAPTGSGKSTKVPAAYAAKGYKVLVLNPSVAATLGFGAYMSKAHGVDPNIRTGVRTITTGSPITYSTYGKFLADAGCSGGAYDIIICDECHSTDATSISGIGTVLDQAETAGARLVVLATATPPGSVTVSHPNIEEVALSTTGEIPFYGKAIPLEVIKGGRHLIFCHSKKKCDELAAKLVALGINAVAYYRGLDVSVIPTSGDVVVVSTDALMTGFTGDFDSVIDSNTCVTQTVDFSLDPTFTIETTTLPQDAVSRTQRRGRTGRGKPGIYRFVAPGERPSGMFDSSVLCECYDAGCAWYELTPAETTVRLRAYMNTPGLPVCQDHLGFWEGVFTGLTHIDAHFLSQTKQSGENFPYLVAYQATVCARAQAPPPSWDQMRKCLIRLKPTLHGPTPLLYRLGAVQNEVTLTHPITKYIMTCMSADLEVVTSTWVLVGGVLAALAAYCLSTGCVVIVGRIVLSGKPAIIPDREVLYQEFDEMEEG
Description: as §1
Serum from an HCV-infected patient was obtained from Dr. T. Wright, San Francisco Hospital. An engineered full-length cDNA (compliment deoxyribonucleic acid) template of the HCV genome (BMS strain) was constructed from DNA fragments obtained by reverse transcription-PCR (RT-PCR) of serum RNA (ribonucleic acid) and using primers selected on the basis of homology between other genotype 1a strains. From the determination of the entire genome sequence, a genotype 1a was assigned to the HCV isolate according to the classification of Simmonds et al. (See P Simmonds, K A Rose, S Graham, S W Chan, F McOmish, B C Dow, E A Follett, P L Yap and H Marsden, J. Clin. Microbiol., 31(6), 1493-1503 (1993)). […]

COc1c(O[C@@H]2C[C@H]3C(=O)N[C@]4(C(=O)NS(=O)(=O)C5CC5)C[C@H]4/C=C\CCCCC[C@H](NC(=O)OC(C)(C)C)C(=O)N3C2)ccc2c(Cl)nccc12 [Compound 3]
IC50 ([1]; BMS strain, read-out: IC50 against the NS3/4A BMS strain in the enzyme assay): 2.8 nM | IC50 ([1]; NS3/4A BMS strain, read-out: IC50 Activity Range): < 100 nM | IC50 [2]: 0.6 nM
